Data from patent US6291527A (priority 1998, dated 2001).
“Also recorded” adds a separate entry of the source. Like-named read-outs stand apart in the source and are kept apart here.

Assays:
[1] = test system: inflammatory exudate (IE); assay: foreign body (sponge) method in the rat: inflammatory exudate volume; assay type: in vivo; conditions: rat, oral, 10 mg/kg, 8 hours
Protocol: (§1) These tests involved the use of 100 male CD strain rats (Charles River, Calco, LC, Italy) weighing 180±8 g. The animals were fasted for 12 hours (water ad libitum) before being used for the experiment.
(§2) The inflammatory reaction with the formation of exudate was induced by using sterilized polyester sponges (4×1.5×0.5 cm) soaked in carrageen dissolved at a 2% concentration in sterile physiological solution. The rats were anesthetized lightly with ether and two sponges per rat were implanted subcutaneously in a previously shaven dorsal area.
(§3) The sponges were removed 8 hours later after having sacrificed the animals by ether euthanasia, and immediately placed in large polyethylene 50 ml test tubes containing 10 ml of heparinized physiological solution. The test tubes were then subjected to centrifugation (1000 rotations; 15 minutes), followed by removal of the sponges and accurate measurement of the volume of the remaining fluid. Always using the Higgs et al. method, the acid lipids present in the fluid were extracted in chloroform with prior dilution in ethanol and acidification to pH 3. After complete evaporation of the chloroform, the remaining dry residue was dissolved in physiological solution and used for the immunoenzymatic assay of prostaglandin E2 (PGE2).
(§4) All the other reagents used for the tests were purchased from Merck-Bracco (Milan, Italy).

prostaglandin E2 (PGE2) = assay: foreign body (sponge) method in the rat: PGE2 in the inflammatory exudate (immunoenzymatic assay); assay type: in vivo; conditions: rat, oral, 10 mg/kg, 8 hours
Protocol: as §1, §2, §3, §4

[2] = high quantities, intact and abraded skin, also long term; cited from earlier work
[3] = 100 mg i.m., cited from earlier work
[4] = Ketoprofen gel, cited from earlier work
[5] = 100 mg i.m., approx. 3 hours before operation; cited from earlier work
[6] = synovial fluid, 50 mg oral; cited from earlier work
[7] = in vivo; cited from earlier work
rat = conditions: cited from earlier work
[8] = cited from earlier work
carrageen edema = carrageen edema test in the rat (hind paw volume, plethysmometer); conditions: rat, oral
[9] = once a day for three days, 12 hours

Q: What does the source list for `CC(C(=O)O)c1cccc(C(=O)c2ccccc2)c1` (stereo not drawn) [Ketoprofen, 3-Benzoyl-α-methylbenzeneacetic acid]?
A: % inhibition versus controls of IE [1]: 58.6%; IE (inflammatory exudate) volume ([1]; mean ± MSE, controls 5.15 ± 0.28): 2.13 ± 0.15 mL; % inhibition versus controls of PGE2 (prostaglandin E2 (PGE2)): 49.7%; PGE2 concentration in the inflammatory exudate (prostaglandin E2 (PGE2); mean, controls 98.7 ± 4.7): 49.6 ng/mL; tolerability / toxicity following dermal application [2]: excellent tolerability and lack of acute and chronic toxicity; also recorded: did not induce any local or general harm; penetration into the joints ([3]; 15 minutes): penetrates promptly into the joints; serum and synovial concentration at equilibrium ([3]; 3.5 hours): 1.3 µg/mL; mean resident time in the joints vs serum [3]: about three times longer than that observed in serum; time of equilibrium of serum and synovial concentrations [3]: 3.5 h; AUC of the free Ketoprofen fraction in serum ([3]; serum): 127 ng·h/mL; time of maximum serum concentration ([3]; serum): 30 min; AUC of the free Ketoprofen fraction in synovial fluid ([3]; synovial fluid): 119 ng·h/mL; concentration when first detectable ([4]; 2nd hour, matrix not stated): 6.3 ng/mL; concentration in capsular tissue [4, 9]: 2.36 µg/g; concentration in intraarticular adipose tissue [4, 9]: 4.70 µg/g; concentration in synovial fluid [4, 9]: 1.31 µg/g; concentration in the joint vs systemic circulation [4]: greater active substance concentration in the joint than in systemic circulation; duration of constant values [4]: 12 h; time to peak concentration [4]: after six hours; mean value in blood [5]: 1.39 µg/g; mean value in bone [5]: 0.25 µg/g; mean value in fat [5]: 0.28 µg/g; mean value in muscle [5]: 0.26 µg/g; mean value in synovial fluid [5]: 0.85 µg/g; mean value in synovial membrane [5]: 0.32 µg/g; time of synovial peak [6]: approximately two hours after the plasma peak; elimination with the feces [7]: 1%; oral LD50 (rat): 165 mg/kg; time to peak concentration ([8]; intramuscular): ≤ 30 min; intraarticular concentrations vs serum and plasma, conclusion ([8]; various routes of administration): reach peak levels later with respect to those observable in serum and plasma, but remain at higher levels than the latter for a longer period after treatment and always with higher values compared to those present in circulatory flow; anti-inflammatory / anti-edematogenic effect (carrageen edema): also resulted as having anti-inflammatory activity; evolution of paw volume (delta in ml) at 1st hour (carrageen edema; 10 mg/kg, 1st hour, mean ± MSE): 0.19 ± 0.02 mL; evolution of paw volume (delta in ml) at 2nd hour (carrageen edema; 10 mg/kg, 2nd hour, mean ± MSE): 0.33 ± 0.03 mL; evolution of paw volume (delta in ml) at 3rd hour (carrageen edema; 10 mg/kg, 3rd hour, mean ± MSE): 0.41 ± 0.02 mL; evolution of paw volume (delta in ml) at 4th hour (carrageen edema; 10 mg/kg, 4th hour, mean ± MSE): 0.42 ± 0.02 mL; evolution of paw volume (delta in ml) at 5th hour (carrageen edema; 10 mg/kg, 5th hour, mean ± MSE): 0.40 ± 0.03 mL; evolution of paw volume (delta in ml) at 6th hour (carrageen edema; 10 mg/kg, 6th hour, mean ± MSE): 0.37 ± 0.03 mL; % inhibition vs controls (paw edema AUC) (carrageen edema; 10 mg/kg, p < 0.001): 54.1%; AUC (mean ± MSE) of increase in paw volume (carrageen edema; 10 mg/kg, paw volume (delta in ml) vs time (0 to 6 hours), controls 4.23 ± 0.26): 1.94 ± 0.10
